Laboratory results: PubChem BioAssay AID1963986 (Molecular Pharmacology Branch, DTP, NCI, 2024)

Tested on: 171881-019-R-J1-PDC tumor spheroid viability
Test: Anticancer human tumor 171881-019-R-J1-PDC patient-derived invasive breast carcinoma cell line growth inhibition [PI3K]
Conditions: spheroids with HUVEC and MSC; for IC50: curve of first compound; for viability, T/C: stronger effect = lower value
Description: Combinatorial screen of targeted agents with the PI3K inhibitors inavolisib, alpelisib, duvelisib, and copanlisib in multi-cell type tumor spheroids
A high-throughput screen of multi-cell type tumor spheroids was designed to identify active combinations of targeted small molecules and PI3K pathway inhibitors. Complex spheroids include a stromal component modeled by human endothelial cells (HUVEC) and fibroblasts modeled by human mesenchymal stem cells (MSCs). The concentration ranges selected for each drug and investigational agent were based upon clinically achievable concentrations if the clinical Cmax of the agent was known.
Compounds. The drugs and investigational agents: inavolisib (NSC800729), alpelisib (NSC765974), duvelisib (NSC772469), copanlisib (NSC816437), ipatasertib (NSC767898), afuresertib (NSC778305), talazoparib (NSC767125), sapanisertib (NSC764658), selumetinib (NSC741078), tovorafenib (DAY101, NSC766906), vemurafenib (NSC761431), ravoxertinib (NSC781343), sotorasib (NSC818433), MRTX1133 (NSC 836407), abemaciclib (NSC 768073), palbociclib (NSC758247), venetoclax (NSC 766270), SY5609 (NSC837396), enzalutamide (NSC755605), and darolutamide (NSC825331), were obtained from the National Cancer Institute (NCI) Developmental Therapeutics Program Chemical Repository. The FDA-approved anticancer drug set is available from the NCI Developmental Therapeutics Program. […] The stock solutions were prepared in dimethyl sulfoxide (DMSO, Sigma-Aldrich, St. Louis, MO, cat. D2650) at 800-fold the tested concentration and stored at -70 degrees C prior to their use. All drugs and investigational agents were tested over a range starting from a high concentration at or near the clinical Cmax and decreasing in half-log increments. If the clinical Cmax for an agent had not been determined, the highest concentration tested was 10 microM.
Cell Culture. All cells were maintained in an incubator at 37 degrees C and 5% CO2 with 95% humidity. The PDC lines were cultured according to standard operating procedures established by the NCI PDMR (https://pdmr.cancer.gov/sops/default.htm). All PDCs were thawed and cultured in Matrigel-coated flasks prepared with a working solution of 1X Ham's F-12 nutrient mix, without supplementation (Invitrogen, Waltham, MA, cat. 11765054), 100 U/mL penicillin-streptomycin (Invitrogen, cat. 15140122), and 2.5% Matrigel (Corning Inc., Corning, NY, cat. 354248) for the first three passages. The 354836-022-R-J1-PDC, 475296-252-R-J1-PDC, and 997726-040-R-J2-PDC lines were cultured in 6A media, which includes advanced DMEM/F-12 (Thermo Fisher Scientific, cat. 12634028), 10 mM HEPES (Thermo Fisher Scientific, cat. 15630080), 1X GlutaMAX supplement (Thermo Fisher Scientific, cat. 35050061), 0.1 mg/mL primocin (InvivoGen, San Diego, CA, cat. ant-pm-2), 10% defined fetal bovine serum, heat inactivated (HyClone Laboratories Inc., Logan, UT, cat. SH30070.03HI), 50% L-WRN conditioned media (ATCC, cat. CRL-3276), 1.25 mM N-Acetyl-L-cysteine (Sigma-Aldrich, cat. A9165), 10 mM nicotinamide (Sigma-Aldrich, cat. N0636), 1X B-27 supplement (Thermo Fisher Scientific, cat. 17504044), 1X N-2 supplement (Thermo Fisher Scientific, cat. 17502048), and 10 microM Y-27632 dihydrochloride (Tocris Bioscience, Bristol, United Kingdom, cat. 1254). The 624824-186-R-J2-PDC line was cultured in 6C/Colon 1B media, which includes all 6A media components plus 50 ng/mL human EGF recombinant protein (Thermo Fisher Scientific, cat. PHG0311). […]
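Further: spheroids exposed to compound for 7 days before viability read.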
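Wherever viability, T/C is given: 100% = DMSO vehicle-treated spheroids.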

Cn1ncnc1[C@H]1c2n[nH]c(=O)c3cc(F)cc(c23)N[C@@H]1c1ccc(F)cc1 + CC(Nc1ccc2c(c1)OCCn1cc(N3C(=O)OCC3C(F)F)nc1-2)C(N)=O
IC50 (second compound 0.00316 µM): > 0.1 µM
IC50 (second compound 0.01 µM): > 0.1 µM
IC50 (second compound 0.0316 µM): > 0.1 µM
IC50 (second compound 0.1 µM): < 0.000316 µM
IC50 (second compound 0.316 µM): < 0.000316 µM
IC50 (second compound 1 µM): < 0.000316 µM
viability, T/C (second compound 0.00316 µM, first compound 0.000316 µM): 85.4%
viability, T/C (second compound 0.00316 µM, first compound 0.001 µM): 96.5%
viability, T/C (second compound 0.00316 µM, first compound 0.00316 µM): 95.2%
viability, T/C (second compound 0.00316 µM, first compound 0.01 µM): 91.6%
viability, T/C (second compound 0.00316 µM, first compound 0.0316 µM): 95.9%
viability, T/C (second compound 0.00316 µM, first compound 0.1 µM): 70.6%
viability, T/C (second compound 0.01 µM, first compound 0.000316 µM): 79%
viability, T/C (second compound 0.01 µM, first compound 0.001 µM): 76.4%
viability, T/C (second compound 0.01 µM, first compound 0.00316 µM): 78.2%
viability, T/C (second compound 0.01 µM, first compound 0.01 µM): 65.5%
viability, T/C (second compound 0.01 µM, first compound 0.0316 µM): 81.5%
viability, T/C (second compound 0.01 µM, first compound 0.1 µM): 71.5%
viability, T/C (second compound 0.0316 µM, first compound 0.000316 µM): 54%
viability, T/C (second compound 0.0316 µM, first compound 0.001 µM): 55.7%
viability, T/C (second compound 0.0316 µM, first compound 0.00316 µM): 51.5%
viability, T/C (second compound 0.0316 µM, first compound 0.01 µM): 52%
viability, T/C (second compound 0.0316 µM, first compound 0.0316 µM): 55.3%
viability, T/C (second compound 0.0316 µM, first compound 0.1 µM): 48.7%
viability, T/C (second compound 0.1 µM, first compound 0.000316 µM): 37.8%
viability, T/C (second compound 0.1 µM, first compound 0.001 µM): 38.9%
viability, T/C (second compound 0.1 µM, first compound 0.00316 µM): 36.8%
viability, T/C (second compound 0.1 µM, first compound 0.01 µM): 38%
viability, T/C (second compound 0.1 µM, first compound 0.0316 µM): 36.8%
viability, T/C (second compound 0.1 µM, first compound 0.1 µM): 34.5%
viability, T/C (second compound 0.316 µM, first compound 0.000316 µM): 26.2%
viability, T/C (second compound 0.316 µM, first compound 0.001 µM): 26.3%
viability, T/C (second compound 0.316 µM, first compound 0.00316 µM): 26.1%
viability, T/C (second compound 0.316 µM, first compound 0.01 µM): 25%
viability, T/C (second compound 0.316 µM, first compound 0.0316 µM): 26.2%
viability, T/C (second compound 0.316 µM, first compound 0.1 µM): 21.1%
viability, T/C (second compound 1 µM, first compound 0.000316 µM): 21.7%
viability, T/C (second compound 1 µM, first compound 0.001 µM): 18.7%
viability, T/C (second compound 1 µM, first compound 0.00316 µM): 21.2%
viability, T/C (second compound 1 µM, first compound 0.01 µM): 18.6%
viability, T/C (second compound 1 µM, first compound 0.0316 µM): 19.8%
viability, T/C (second compound 1 µM, first compound 0.1 µM): 17.7%
